Test results: US7744854B2, “Method for optimizing cancer therapy by monitoring maturation of tumor associated vasculature by selenium” (Health Research, Inc., priority 2006, dated 2010)
“Also recorded” adds a separate entry of the source.

Key:
HIF-1α = HIF-1α expression in hypoxic FaDu tumor cells in vitro; format: cell-based; conditions: 24 hr hypoxic conditions, preliminary results
From the text: To determine whether HIF-1α is a target for MSC, FaDu tumor cells were exposed in vitro for 24 hr to hypoxic conditions and analyzed for HIF-1α expression to FaDu cells. […] The data in FIG. 8C is graphic representation of the relative intensity of each marker.

HNSCC xenograft FaDu = assay: Dose and schedule dependence of therapeutic synergy with irinotecan in FaDu xenograft; format: in vivo
From the text: A minimum 7 days pretreatment with MSC is required to achieve optimal therapeutic synergy with a representative anticancer drug—irinotecan. […] Daily pretreatment for 7-14 days was critical to achieve the selective effects of selenium. This reflects the time required for priming of tumor vasculature by MSC in order to see the therapeutic end results.

[1] = test system: HNSCC xenografts FaDu and A253; assay: Tumor vascular maturation index and mean vessel lumen area; format: in vivo; conditions: vs untreated control tumors
From the text: FIG. 5A summarizes effect of MSC treatment on tumor vascular maturation index (VMI) and on the mean tumor vessel lumen area (FIG. 5B) in HNSCC xenografts FaDu and A253. […] Treatment with MSC makes the arrangement less chaotic and more ‘normalized’ in arrangement.

FaDu tumors = assay: CD31/α-SMA double immunohistochemical staining of FaDu tumors; format: in vivo, mouse; conditions: day 14 of MSC treatment
From the text: MSC treatment results in reduction of tumor vascular leakiness as reflected by the slope of the ΔR1 values in FaDu xenografts. This could be a result of tumor vascular maturation as determined by the double immunohistochemical staining for the pan endothelial cell adhesion molecule (PECAM; CD31) and α-SMA in control and MSC treated mice (Day 14 of MSC treatment).
This is in agreement with our estimates of MVD as MSC treatment does lead to a reduction in MVD. However, the decrease in permeability could be a result of the ‘maturation’ effect of MSC. To validate findings from the imaging studies, immunohistochemical staining for the pan endothelial cell adhesion molecule (PECAM; CD31) along with staining with alpha-smooth muscle actin was performed in control and MSC-treated mice (Day 14 after treatment).

[2] = test system: Delta-like 4 ligand (DLL4); assay: Western blot of FaDu xenografts: DLL4; format: in vivo; conditions: selenium for 14 days
From the text: (§1) MSC up-regulates Thrombospondin-1 (TSP-1) a potent inhibitor of angiogenesis and important controller of tumor growth and its receptor CD36 (FIG. 8A), HIF-1α expression (FIG. 8B) and relative intensity (FIG. 8C). To assess the effects of selenium on TVM, the expression of molecular markers associated with tumor hypoxia, drug resistance and increased proliferation, namely, hypoxia-inducible factor 1∝ (HIF-1∝), Cyclooxygenase-2 (Cox-2), inducible nitric oxide, propyl hydroxyl domain (PHD) and vascular endothelial growth factor (VEGF) were evaluated in xenograft tumors. Selenium was administered for 14 days. Western blot analysis was performed to determine the effect of MSC treatment on different antiangiogenic markers TSP-1, CD36, Delta-like 4 ligand (DLL4) and hypoxia inducible factor HIF-1α Data in FIG. 8A indicate that CD36 is up regulated in FaDu xenografts treated with MSC. Along with the CD36 MSC up regulates TSP-1, which is known to be involved in the inhibition of angiogenesis. Further, MSC down-regulates DLL4 in FaDu xenografts.

FaDu xenografts [3] = assay: DCE-MRI (albumin-GdDTPA) of tumor vascular permeability and volume in FaDu xenografts; format: in vivo, mouse
Method: FaDu xenograft bearing mice were used. MSC was administered for 14 days. Mice were imaged using a 4.7-T/33-cm horizontal bore magnet (GE NMR Instruments, Fremont, Calif.) incorporating AVANCE digital electronics [Bruker Biospec, ParaVision 3.0.2 OS); Bruker Medical, Billerica, Mass.], a removable gradient coil insert (G060; Bruker Medical) generating a maximum field strength of 950 mT/m, and a custom-designed radiofrequency transreceiver coil. Animals were anesthetized before imaging with a ketamine/xylazine mixture (10:1) at a dose of […], secured in a mouse coil chamber, and positioned on a scanner. The animals were kept warm in the magnet using a circulating water bath maintained at 37 jC. […] T1 relaxation rates were determined using a saturation recovery, fast spin echo sequence with an effective echo time (TE) of 10 milliseconds, and a TR ranging from 360 to 6000 milliseconds [FOV=32×32 mm, slice thickness=1.0 mm, matrix size=128×96 pixels, number of excitations (NEX)=3]. […]
Image processing and analysis were carried out using commercially available software (ANALYZE PC, Version 5.0; Biomedical Imaging Resource, Mayo Foundation, Rochester, Minn.) (Matlab's curve-fitting toolbox, Matlab Version 7.0; Math Works, Inc., Natick, Mass.). […] Percent tumor enhancement (E) was then calculated from relative intensity (RI) […]

Thrombospondin-1 (TSP-1) = assay: Western blot of FaDu xenografts: TSP-1; format: in vivo; conditions: selenium for 14 days
From the text: as §1

[4] = Tumor drug uptake by HPLC in FaDu xenografts; format: in vivo
Method: FIGS. 6A and 6B show the effect of 14 days pre-treatment with MSC prior to drug administration on tumor drug uptake (2 hours post i.v.) as determined by HPLC in FaDu xenografts for CPT-11 and doxorubicin respectively. […] The drug concentration in the normal tissues studied such as liver, plasma.

tumor microvessels = assay: Histopathological studies for direct antivascular effect; format: in vivo, mouse; conditions: histopathology
From the text: (§2) Thus, selenium inhibits proliferation of endothelial cells.

FaDu xenografts [5] = assay: Intratumoral microvessel density (CD31 immunostaining) in FaDu xenografts; format: in vivo; conditions: 0.2 mg/mouse/day, after 2 weeks, p<0.05
From the text: Microvessels were counted based on endothelial cells immunostaining with CD31 Mab on paraffin sections, after zinc fixative (p<0.05 in each system).

[6] = test system: endothelial cells in the angiogenic microvessels; assay: CD31/Tunnel double staining of angiogenic microvessels; format: in vivo, mouse
From the text: as §2

CD36 = assay: Western blot of FaDu xenografts: CD36; format: in vivo; conditions: selenium for 14 days
From the text: as §1

FaDu xenografts [7] = assay: Hoechst 33342 / DiOC7 fluorescent dye uptake, functional tumor vasculature; format: in vivo, mouse; conditions: post 14 days MSC treatment
Method: Initial studies on uptake of fluorescent dyes Hoechst 33342 (i.v at 15 mg/kg in sterile phosphate buffered saline) followed 20 minutes later with DiOC7 (i.v. at 1 mg/kg in dimethyl sulfoxide) in mice bearing A253 and FaDu xenografts are indicative of tumor vascular maturation by MSC. Uptake of both dyes is indicative of functional vasculature while uptake of only one dye is indicative of […] vasculature. […] Abnormal vasculature shut off when challenged with dyes similar to Hoechst 33342 while blood flow through ‘normalized’ vasculature is not affected.

VEGF = VEGF expression (WB) and secretion (ELISA) in FaDu tumor cells in vitro; format: cell-based
From the text: as §2

[8] = test system: matrigel plug containing cultured FaDu tumor cells; assay: Matrigel plug (s.c.) containing cultured FaDu tumor cells, microvessel count; format: in vivo; conditions: 0.2 mg/mouse/day, after 1 week, 10^6 cells s.c., p<0.05
From the text: as §2

[9] = 14 days MSC pre-treatment, 2 hours post i.v., vs monotherapy
[10] = combination treatment with SN-38

C[Se]C[C@H](N)C(=O)O [MSC, methylselenocysteine]
HIF-1α expression (HIF-1α): significant inhibition | minimum pretreatment required for optimal therapeutic synergy with irinotecan (HNSCC xenograft FaDu; daily MSC): ≥ 7 days | therapeutic effect (HNSCC xenograft FaDu; with irinotecan): dose and schedule dependent | mean tumor vessel lumen area ([1]; p<0.0001): reduction | tumor vascular maturation index (VMI) ([1]; p<0.05): significant increase | pericyte recruitment / α-SMA staining of tumor vasculature (FaDu tumors): Increased pericyte recruitment; also recorded: increased staining of α-SMA | DLL4 expression [2]: down-regulates | tumor vascular volume (FaDu xenografts [3]; 14 days MSC treatment): statistically significant decrease | tumor vascular permeability (leakiness; slope of ΔR1) (FaDu xenografts [3]; 14 days MSC vs volume matched control): reduction; also recorded: statistically significant decrease | TSP-1 expression (Thrombospondin-1 (TSP-1)): up regulates | intratumoral drug concentration, CPT-11 (SN-38 per FIG. 6A) [4, 9]: more than doubling | intratumoral drug concentration, doxorubicin [4, 9]: more than doubling | drug concentration in normal tissues ([4]; liver, plasma, kidney, combination with MSC vs monotherapy): did not show a significant increase | direct antivascular effect (microvessel necrosis, endothelial cell death, microthrombus formation) (tumor microvessels): did not show any signs of other direct antivascular effect | intratumoral microvessel density (MVD) (FaDu xenografts [5]): decreases | apoptotic endothelial cell nuclei in angiogenic microvessels [6]: did not show apoptotic endothelial cell nuclei | CD36 expression (CD36): up regulated | vasculature with uptake of both dyes ('normalized' functional vasculature) (FaDu xenografts [7]): approximately 80% | VEGF expression (WB) (VEGF; [10]): down regulates | VEGF secretion (ELISA) (VEGF; [10]): down regulates | VEGF secretion (VEGF; selenium alone): decreased | microvessel density in matrigel plug containing FaDu tumor cells [8]: decreases
